In patent publication US20230293676A1, “Pharmaceutical Composition Comprising Hepatitis B Virus-Derived Polypeptide for Prevention or Treatment of Cancer” (priority 2020, published 2023):
Ends that are not written are not given here.

Tests used:
[1] = tested on: B16F10 murine melanoma cancer cell; experiment: cytotoxicity against cancer cells by poly6-treated DC2.4 cells, FACS; format: cell-based
Experimental: (§1) FIG. 7 illustrates the results of confirming that the cytotoxicity of various cancer cell lines (MC38, B16F10, and EO771) was reduced when iNOS formation was inhibited by L-NAME (5 mM) treatment while stimulating DC2.4 cells with poly6 for 24 hours (statistical significance was tested by Student's t-test. *, P<0.05; **, P<0.01; and ***, P<0.001).

[2] = tested on: MC38 murine colon cancer cell; experiment: as above; format: cell-based
Experimental: as §1

EO771 = experiment: as above; format: cell-based, murine
Experimental: as §1

[3] = tested on: PanO2 murine pancreatic cancer cell; conditions: concentration-dependent
[4] = tested on: MDA231 human breast cancer cell; conditions: concentration-dependent
[5] = L-NAME 5 mM while stimulating DC2.4 with poly6 for 24 hours
[6] = DC2.4 treated with 10 μM of poly6 vs LPS (1 μg/ml)

With `COC(=O)[C@@H](N)CCCNC(=N)N[N+](=O)[O-]` [L-NAME, reference compound] the “cytotoxicity when iNOS formation was inhibited” value [1, 5] was “reduced”, the “cytotoxicity when iNOS formation was inhibited” value [2, 5] was “reduced” and the “cytotoxicity when iNOS formation was inhibited” value (EO771; [5]) was “reduced”.

With GRLVFQ [poly6, GRLVFQ] the “cytotoxicity against cancer cells compared to LPS” value [1, 6] was “statistically significantly increased”, the “cytotoxicity by poly6-stimulated DC2.4 cells” value ([1]; concentration-dependent) was “cytotoxicity was induced” and the “cytotoxicity against cancer cells compared to LPS” value [2, 6] was “statistically significantly increased”. The “cytotoxicity by poly6-stimulated DC2.4 cells” value ([2]; concentration-dependent) was “cytotoxicity was induced”, the “cytotoxicity by poly6-stimulated DC2.4 cells” value (EO771; concentration-dependent) was “cytotoxicity was induced” and the “cytotoxicity by poly6-stimulated DC2.4 cells” value [3] was “cytotoxicity was induced”. For the same compound, the “cytotoxicity by poly6-stimulated DC2.4 cells” value [4] was “cytotoxicity was induced”.
